Experimental data reported in a melting point compilation (Tetko et al.; mined from patent text by program, amines drawn as free bases though some values may be those of a salt).

| melting point | SMILES |
| --- | --- |
| 75 to 78 °C | CC(C)(C)OC(=O)/C(=C/c1ccccc1Cl)C(=O)c1ccccc1O |
| 149 to 151 °C | O=C(Oc1ccccc1)N1CCC2(CC1)c1ccccc1Sc1ccccc12 |
| 136 to 137 °C | CS(=O)(=O)NCCCCCCCCCCCn1c2c(c3ccccc3c1=O)C(=O)c1ccccc1-2 |
| 220 to 222 °C | COC(COC(=O)C1=C(C)NC2=C(C(=O)CN(Cc3ccccc3)C2)C1c1c(F)c(F)c(F)c(F)c1F)c1ccccc1 (configuration not stated) |
| 152 to 154 °C | COc1cn(-c2ccccc2F)nc(C(=O)N(C)OC)c1=O |
| 170 to 172 °C | O=C1c2ccccc2C(=O)N1CCCN1c2ccccc2C(c2ccccc2)=Nc2cccnc21 |
| 240 to 242 °C | Fc1ccc(Oc2cnc3c(-c4ccccc4Cl)n[nH]c3n2)c(F)c1 |
| 240 to 244 °C | C=Cc1cc(Cl)cc2[nH]c(=O)c(-c3ccccc3)c(O)c12 |
| 117 to 118 °C | CCN(CC)C(=O)c1cc(-c2ccc(OC)cc2)ccc1-c1ccccc1 |
| 175 to 177 °C | O=C(O)c1cnn2c1NCC=C2c1cccc(C(F)(F)F)c1 |
| 181 to 182 °C | O=c1cc(-c2cccc(Br)c2)sc(N2CCOCC2)c1 |
| 198 to 199 °C | NC(=O)Cc1cccc(C(O)c2ccccc2)c1N (configuration not stated) |
| 135 to 137 °C | Cc1cccc(-c2n[nH]cc2-c2ccc(F)c(-c3c[nH]c(C(C)(C)O)n3)c2)n1 |
| 78.2 to 79 °C | CCOc1ccc(-c2nc(CCC(O)c3ccccc3OC)cs2)cc1OCC (configuration not stated) |
| 149 to 151 °C | NC(=O)C1C=Cc2ccccc2N1C(=O)c1ccc(F)cc1 (configuration not stated) |
| 207 to 208 °C | N#Cc1ccc(NCCc2nc3cc(Cl)ccc3c3nn(-c4ccccc4)cc23)nc1 |
| 159 to 162 °C | O=C1OC(OC(=O)c2cccnc2Nc2cccc(C(F)(F)F)c2)c2ccccc21 (configuration not stated) |
| 239 to 241 °C | COc1ccccc1-c1c(=O)[nH]c2cc(Cl)c(Cl)cc2[n+]1[O-] |
| 83 to 85 °C | CON=Cc1cnnc2ccccc12 |
| 139 °C | Oc1ccccc1Cc1cccc2[nH]ccc12 |

| melting point | SMILES |
| --- | --- |
| 203 to 204 °C | CCOC(=O)c1ccc(NC(=O)C=Cc2ccc(Cl)cc2)cc1 |
| 144 to 145 °C | O=C1N[C@H](Cc2ccc(Oc3ccccc3)cc2)[C@H](c2ccc(F)cc2)O1 (racemic) |
| 96 to 99 °C | COc1ccc(OC)c(C2Nc3ccccc3S2)c1 (configuration not stated) |
| 192 to 194 °C | Cc1oc(-c2ccccc2)nc1COc1cccc2cc(NS(=O)(=O)C(F)(F)F)ccc12 |
| 104 to 105 °C | C#CCn1ccc2ccccc2c1=O |
| 150 to 152 °C | O=C(O)COc1ccc(-c2ccc(-c3c(Cc4ccccc4)sc4ccccc34)cc2)cc1Br |
| 192 to 195 °C | CNS(=O)(=O)c1ccccc1Nc1nc(Nc2ccc3c(c2)CCCC(=O)N3CC(=O)O)ncc1Cl |
| 101 to 102 °C | c1ccc(COc2ccc(-c3cocn3)cc2)cc1 |
| 71 to 74 °C | O=S(Cc1[nH]c2ccccc2c1Sc1ccccc1)c1ccccc1 (configuration not stated) |
| 172 to 174 °C | CC(C)CC1(C(CCN2C(=O)c3c(F)c(F)c(F)c(F)c3C2=O)C(=O)NO)CCN(CCc2ccccc2)C1=O (configuration not stated) |
| 212 to 215 °C | CNS(=O)(=O)Cc1ccc(Nc2nc(Nc3ccccc3)c3cc(OC)ccc3n2)cc1 |
| 223 to 224 °C | Cn1nc(-c2ccccc2)cc1C(=O)Nc1ccc(OCC(C)(C)C)c(C#N)c1 |
| 139 to 140 °C | COC(=O)c1cc(-c2nc(COc3ccc(CCl)cc3OC)c(C)o2)ccc1C |
| 187 to 190 °C | CCc1cccc(Cl)c1C(=O)N[C@@H](Cc1ccc(-c2c(C)n(C)c(=O)n(C)c2=O)cc1)C(=O)O |
| 212 °C | Cn1nc(-c2cnc(N)nc2-c2cccc(F)c2)ccc1=O |
| 225 to 230 °C | O=C(Nc1ccc(C(=O)N2Cc3ccccc3Cc3ccccc32)cc1)c1cccc(Cl)c1Cl |
| 207 to 209 °C | CNC(=O)CC1CN=C(c2cc3cc(Oc4ccc(S(C)(=O)=O)cn4)cc(OC)c3[nH]2)S1 (configuration not stated) |
| 204 °C | COc1cc2c(cc1OC)CN(CCCCc1ccc(NC(=O)c3cccc4c(=O)cc(-c5ccccc5)[nH]c34)cc1)CC2 |
| 128 to 130 °C | Nc1nnc(-c2cccc(Oc3cccc(COc4ccc(Cl)c(Cl)c4)c3)c2)s1 |
| 256 to 260 °C | O=C(O)c1cn(-c2ccc(F)cc2F)c2c(F)c(N3Cc4cccc(Cl)c4C3)c(F)cc2c1=O |

Further lines, the compound ahead of its results:

| SMILES | melting point |
| --- | --- |
| CC(C)(C)C(=O)Nc1nc(Cl)c2ccnc-2[nH]1 | > 210 °C |
| O=C1c2ccccc2C(=O)N1Cc1nc(C2CC2)no1 | 115 °C |
| CN1C(=O)C(=CN2CCOCC2)N=C(c2ccccc2Cl)c2cc(F)ccc21 | 110 to 115 °C |
| CCN1CCCC(CC)(c2ccc(Nc3ncc4ccc(-c5ccccc5N(C)S(C)(=O)=O)n4n3)cc2)C1 (configuration not stated) | 93 to 101 °C |
| CC(c1ccc(O)cc1)(c1ccc(O)cc1)c1ccc(C(C)(c2ccc(O)cc2)c2ccc(O)cc2)cc1 | 307 °C |
| CCOC(=O)C(C(=O)CCCCC(C)C)C1c2ccccc2C(=O)N1c1ccc2ccc(Cl)nc2n1 (configuration not stated) | 136 °C |
| Cc1cc(C)n(-c2ccc(C(N)=O)nn2)n1 | 256 to 257 °C |
| COc1nc2cc(C)c(Cl)c(NS(C)(=O)=O)c2nc1OC | 198 °C |
| CN(C)S(=O)(=O)c1cccc(Cl)c1S(N)(=O)=O | 171 to 182 °C |
| CCCCCCN(CCCCCC)C(=O)COc1cc(C(=O)O)c([N+](=O)[O-])c(C(=O)O)c1 | 180 to 184 °C |
| CCOc1ccc2c(c1)CC2C#N (configuration not stated) | 50 to 52 °C |
| CC1CCC(C(C)C)C(OC(=O)C(O)c2ccccc2)C1 (single isomer, unassigned; (-)) | 50 to 51 °C |
| N#CC(N)=C(C#N)N=Cc1cnn(-c2ncc(C(F)(F)F)cc2Cl)n1 | 220 to 222 °C |
| CNC(=S)C1(c2cccnc2)CCCCC1=O (configuration not stated) | 188 to 190 °C |
| COc1c(NC(=O)c2cc3cccc(NC(=O)c4ccc(N)nc4)c3s2)cc(C(C)(C)C)cc1NS(C)(=O)=O | 234 to 235 °C |
| CC(C)c1cc(C(=O)Nc2ccc(C(=O)O)cn2)oc1C(C)C | 278 to 279 °C |
| CCOC(=O)CC[C@H](NC(=O)c1ccc(NCCCc2c(N(C(C)=O)C(C)=O)nc(NC(C)=O)[nH]c2=O)c(OC)c1)C(=O)OCC | 73 to 84 °C |
| CC1=CC(=C(C#N)C#N)C=C(C)N1 | 158 to 159 °C |
| CCC(Cc1ccc(OC)c(OCCc2ccc(C(F)(F)F)cc2)c1)C(=O)O (configuration not stated) | 64 to 66 °C |

| SMILES | melting point |
| --- | --- |
| CC(C)N1CCc2ccc(NC(=N)c3cccs3)cc2C1 | 110 to 111 °C |
| CCOCn1nccc1C(=O)c1ccc(O)c(Cl)c1Cl | 115 to 117 °C |
| O=C(N=C1SCCN1Cc1cnc(Cl)s1)c1ccccc1 | 120 °C |
| CCOC(=O)c1cc2ccoc2nc1C(=O)OCC | 66 to 77 °C |
| O=C1c2ccc(NC(=O)C3CC3)cc2C(=O)c2cc(NC(=O)C3CC3)ccc21 | 352 °C |
| CCCc1nc2c(N)nc3ccccc3c2n1CCCCN(OC)C(C)=O | 138 to 140 °C |
| ClC(Cl)(Cl)c1nc2ccccc2o1 | 102 °C |
| COC(=O)CC/C(C)=C/Cc1c(N=C=O)c2c(c(C)c1OC)COC2=O | 95 to 101 °C |
| N#CCc1cc(Cl)ncc1[N+](=O)[O-] | 87 to 89 °C |
| O=[N+]([O-])c1ccc2c(c1)N(c1nnn[nH]1)CC2 | 262 to 270 °C |
| O=C(NCCN1CCOCC1)N1c2ccccc2-c2noc3c2C1CCC3 (configuration not stated) | 176 to 178 °C |
| O=C(O)c1cc(S)n2ncnc2n1 | 230 to 232 °C |
| Cc1nccn1-c1nn(Nc2cnccn2)nc1-c1cccc(C#N)c1 | 276 °C |
| COC(=O)[C@H](CC(C)C)NC(=O)CNC(=O)[C@H](Cc1ccc(O)cc1)NC(=O)[C@H](CO)NC(=O)OCc1ccccc1 | 166 to 167 °C |
| O=C(NC(CO)(CO)CO)c1ccc(C(=O)NC(CO)(CO)CO)cc1 | 188 to 190 °C |
| CC(C)C(=O)N(O)C(C)c1cc2ccccc2s1 (configuration not stated) | 132 to 138 °C |
| COc1cccc(C2CCCN(C(=O)N(C)O)C2)c1 (configuration not stated) | 96 to 98 °C |
| Cc1ccccc1CN(O)C(=O)C(C)(C)CCl | 112 to 113 °C |
| CCn1nc(-c2cccs2)c(C(=O)OCCOC(C)=O)c(Nc2cnccc2C)c1=O | 161 to 162 °C |

| SMILES | melting point |
| --- | --- |
| Clc1ccc2c(c1)N(CC1CN3CCC1CC3)c1ccccc1S2 (configuration not stated) | 122 °C |
| COc1ccc(C(=O)C2=C(O)C(=O)N(c3nnc(C(F)(F)F)s3)C2c2ccc(C(C)(C)C)cc2)cc1 (configuration not stated) | 271 °C |
| CCCCCOc1ccc2cc(CCC(N)(CO)CO)ccc2c1 | 106 to 109 °C |
| COc1ccc(C(=O)C=C2CCCN2)cc1 | 134 to 135 °C |
| CCCCCCCCCCCCc1ccccc1C(Sc1nnnn1CCCC(=O)O)C(=O)O (configuration not stated) | 86 to 88 °C |
| c1ccc2c(NCCCCNc3nccc4ccccc34)nccc2c1 | 189 to 192 °C |
| Cc1nc(CS(C)(=O)=O)nc(OC(=O)NN2CC(C)OC(C)C2)c1C (configuration not stated) | 103 °C |
| CCCCCCS(=O)(=O)NC(=O)CCc1cc(OC(C)C)nn1Cc1ccc(Cl)cc1Cl | 103 to 106 °C |
| O=S(=O)(CCCCl)Nc1ccc(OCc2ccc3ccccc3n2)cc1 | 117 °C |
| Cn1c(CCN2CCN(Cc3ccccc3)CC2)nc2ccc3ccccc3c21 | 144 to 146 °C |
| CCC1(Br)Cc2cc(OCC(=O)O)c(Cl)c(Cl)c2C1=O (configuration not stated) | 189 to 191 °C |
| CC(=O)SCSc1c[nH]nn1 | 88 to 89 °C |
| CCN(CC)CC(=O)OC1CC2(C)C(C(C)=O)CCC2C2CCC3CC(O)C(Br)CC3(C)C12 (configuration not stated) | 149 to 150 °C |
| COc1ccc(-c2nc(CNC(=O)C3=NNC(=O)CC3)sc2-c2ccc(OC)cc2)cc1 | 174 to 175 °C |
| Cc1oc2c(-c3ccc(F)cc3)c(-c3ccc(S(C)(=O)=O)cc3)nn2c1-c1cccs1 | 240 to 241 °C |
| CCS(=O)c1ccc(-c2coc3ccc(-c4nnc(C)o4)nc23)cc1 (configuration not stated) | 207 to 208 °C |
| CN(C)S(=O)(=O)c1cccc2c1Sc1ccc(O)cc1N2CCCN1CCC(CCO)CC1 | 163 to 165 °C |
| CC(C)NCC(O)COc1ccc(NC(=O)C(C)C)cc1C#N (configuration not stated) | 126 to 127 °C |
| CCNC(=O)Nc1ccc(C(O)(C(F)(F)F)C(F)(F)F)cc1 | 178 to 179 °C |
